In experiment [1] the target is HDAC1 enzyme (recombinant GST-HDAC1) (Homo sapiens (Human), UniProt Q13547). The experiment is described as follows: In vitro HDAC assay (BIOMOL fluorescent-based HDAC activity assay), HDAC1. It counts as biochemical. The note with it: read-out: HDAC1 Enzyme Activity IC50.
Experimental: (§1) The assay has been carried out in 96 well format and the BIOMOL fluorescent-based HDAC activity assay has been applied. […] Flur de lys Developer was added and the reaction was incubated for 10 min. Briefly, deacetylation of the substrate sensitizes it to the developer, which then generates a fluorophore (symbol). The fluorophore is excited with 360 nm light and the emitted light (460 nm) is detected on a fluorometric plate reader (Tecan Ultra Microplate detection system, Tecan Group Ltd.).
(§2) The analytical software, Prism 3.0 has been used to generate IC50 from a series of data.
The target of experiment [2] is HDAC8 enzyme (recombinant GST-HDAC8) (Homo sapiens (Human), UniProt Q9BY41). The experiment is described as follows: In vitro HDAC assay (BIOMOL fluorescent-based HDAC activity assay), HDAC8. It counts as biochemical. The note with it: read-out: HDAC8 Enzyme Activity IC50.
Chain of HDAC8 enzyme (recombinant GST-HDAC8) (Q9BY41 whole entry): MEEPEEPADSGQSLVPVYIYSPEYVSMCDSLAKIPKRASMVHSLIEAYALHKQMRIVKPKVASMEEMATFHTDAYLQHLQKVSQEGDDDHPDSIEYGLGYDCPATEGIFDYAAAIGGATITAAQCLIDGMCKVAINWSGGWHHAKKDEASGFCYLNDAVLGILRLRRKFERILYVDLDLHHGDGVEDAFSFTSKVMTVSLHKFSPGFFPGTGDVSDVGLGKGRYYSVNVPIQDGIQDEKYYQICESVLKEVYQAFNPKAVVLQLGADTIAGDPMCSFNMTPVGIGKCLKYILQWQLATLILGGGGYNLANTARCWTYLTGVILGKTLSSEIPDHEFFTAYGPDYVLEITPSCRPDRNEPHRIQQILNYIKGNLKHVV
Experimental: as §1, §2

Chain of HDAC1 enzyme (recombinant GST-HDAC1) (Q13547 whole entry): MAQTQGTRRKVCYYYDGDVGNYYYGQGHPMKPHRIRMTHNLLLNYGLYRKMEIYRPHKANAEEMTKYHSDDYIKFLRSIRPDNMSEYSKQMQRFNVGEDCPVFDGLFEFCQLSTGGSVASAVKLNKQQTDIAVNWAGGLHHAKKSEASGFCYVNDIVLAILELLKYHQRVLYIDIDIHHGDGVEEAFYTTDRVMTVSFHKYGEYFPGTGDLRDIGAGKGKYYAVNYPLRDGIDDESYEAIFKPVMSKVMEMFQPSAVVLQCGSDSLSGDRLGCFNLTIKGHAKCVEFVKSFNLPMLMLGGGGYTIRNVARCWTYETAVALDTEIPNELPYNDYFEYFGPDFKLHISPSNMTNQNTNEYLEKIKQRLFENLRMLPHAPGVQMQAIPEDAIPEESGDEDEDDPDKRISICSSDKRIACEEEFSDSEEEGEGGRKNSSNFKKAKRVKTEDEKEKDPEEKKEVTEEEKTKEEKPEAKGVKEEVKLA

With `O=C(/C=C/c1ccc2c(c1)nc(CCc1ccccc1)n2Cc1ccccn1)NO` [Compound 16, N-Hydroxy-3-(2-phenethyl-1-(pyridin-2-yl)methyl-1H-benzimidazol-5-yl)-acrylamide], the IC50 turned out to be 194 nM in experiment [1] and 366 nM in experiment [2].
As for `Cn1c(CCCc2ccccc2)nc2cc(/C=C/C(=O)NO)ccc21` [Compound 52, N-Hydroxy-3-[1-methyl-2-(3-phenyl-propyl)-1H-benzimidazol-5-yl]-acrylamide], the IC50 in experiment [1] worked out at 160 nM.
The same measure, in the same setting: in the case of `Cn1c(CNC(=O)Cc2ccccc2)nc2cc(/C=C/C(=O)NO)ccc21` [Compound 54] it was 100 nM; in that of `O=C(/C=C/c1ccc2[nH]c(CCc3ccccc3)nc2c1)NO` [Compound 50, N-Hydroxy-3-(2-phenethyl-1H-benzimidazol-5-yl)-acrylamide], 173 nM.
On to `CC(C)Cc1nc2cc(/C=C/C(=O)NO)ccc2n1CCCO` [Compound 21, N-Hydroxy-3-[1-(3-hydroxy-propyl)-2-isobutyl-1H-benzimidazol-5-yl]-acrylamide], for which the half-inhibitory concentration (IC50) in experiment [1] came to 64 nM; in experiment [2] it was 238 nM.
Consider `CN(C)CCCCn1c(CCc2ccccc2)nc2cc(/C=C/C(=O)NO)ccc21` [Compound 57, N-Hydroxy-3-[1-(4-dimethylamino-butyl)-2-phenethyl-1H-benzimidazol-5-yl]-acrylamide], for which the IC50 in experiment [1] amounted to 153 nM.
In the case of `O=C(/C=C/c1ccc2c(c1)nc(CCc1ccccc1)n2CCCN1CCOCC1)NO` [Compound 31, N-Hydroxy-3-[1-(3-morpholin-4-propyl]-2-phenethyl-1H-benzimidazol-5-yl}-acrylamide], the IC50 in experiment [1] was determined as 246 nM; in experiment [2], 1090 nM.
For `CN(C)CC(C)(C)Cn1c([S+]([O-])Cc2ccccc2)nc2cc(/C=C/C(=O)NO)ccc21` (stereo not shown) [Compound 91], in experiment [1], the concentration for half-maximal inhibition (IC50) was determined as 30 nM.
On the same count and under the same terms, in the case of `COc1cccc(CCc2nc3cc(/C=C/C(=O)NO)ccc3n2CC(C)(C)CN(C)C)c1` [Compound 94, N-Hydroxy-3-(1-(3-dimethylamino-2,2-dimethyl-propyl)-2-[2-(3-methoxy-phenyl)-ethyl]-1H-benzimidazol-5-yl)-acrylamide] it was 52 nM.
In the case of `CCn1c(C)nc2cc(/C=C/C(=O)NO)ccc21` [Compound 43, N-Hydroxy-3-(1-Ethyl-2-methyl-1H-benzimidazol-5-yl]-acrylamide], the results for the IC50 in experiment [1] and in experiment [2] were 947 nM and 192 nM, respectively.
As for `O=C(/C=C/c1ccc2c(c1)nc(CCc1ccccc1)n2CC(O)CO)NO` (stereo not shown) [Compound 8], the half-maximal inhibitory concentration (IC50) in experiment [2] turned out to be 454 nM.
In the case of `O=C(/C=C/c1ccc2c(c1)nc(CCc1ccccc1)n2CCCO)NO` [Compound 14, N-Hydroxy-3-[1-(3-hydroxy-propyl)-2-phenethyl-1H-benzimidazol-5-yl]-acrylamide], the figures for the IC50 in experiment [1] and in experiment [2] were 171 nM and 251 nM, respectively.
On to `O=C(/C=C/c1ccc2c(c1)nc(-c1ccncc1)n2CCCO)NO` [Compound 11, N-Hydroxy-3-[1-(3-hydroxy-propyl)-2-(4-pyridyl)-1H-benzimidazol-5-yl]-acrylamide], for which the figures for the IC50 in experiment [1] and in experiment [2] were 846 nM and 161 nM, respectively.
The corresponding values for `O=C(/C=C/c1ccc2c(c1)nc(CCc1ccccc1)n2Cc1cccnc1)NO` [Compound 12, N-Hydroxy-3-[1-(3-pyridylmethyl)-2-(2-phenyl-ethyl)-1H-benzimidazol-5-yl]-acrylamide] are 131 nM and 202 nM.
As for `O=C(/C=C/c1ccc2c(c1)nc(CCc1ccccc1)n2CCCN1CCCC1)NO` [Compound 82, N-Hydroxy-3-[2-phenethyl-1-(3-pyrrolidin-1-yl-propyl)-1H-benzimidazol-5-yl]-acrylamide], the IC50 in experiment [1] stood at 304 nM.
As for `O=C(/C=C/c1ccc2c(c1)nc(-c1ccccn1)n2CCCO)NO` [Compound 13, N-Hydroxy-3-[1-(3-hydroxy-propyl)-2-(2-pyridyl)-1H-benzimidazol-5-yl]-acrylamide], in experiment [2], the IC50 was determined as 141 nM.
Take `CN(C)CC(C)(C)Cn1c(SCc2ccccc2)nc2cc(/C=C/C(=O)NO)ccc21` [Compound 89, N-Hydroxy-3-[2-benzylsulfanyl-1-(3-dimethylamino-2-2,dimethyl-propyl)-1H-benzimidazol-5-yl]-acrylamide]: the IC50 in experiment [1] is 116 nM.
For `COc1cc(-c2nc3cc(/C=C/C(=O)NO)ccc3n2CC(O)CO)ccc1OCc1ccccc1` (stereo not shown) [Compound 7, N-Hydroxy-3-[2-(4-benzyloxy-3-methoxy-phenyl)-1-(2,3-hydroxy-propyl)-1H-benzimidazole-5-yl]-acrylamide], the IC50 was found to be 1520 nM in experiment [1] and 336 nM in experiment [2].
The like results for `O=C(/C=C/c1ccc2c(c1)nc(-c1ccncc1)n2CCO)NO` [Compound 10, N-Hydroxy-3-[1-(2-hydroxy-ethyl)-2-(4-pyridyl)-1H-benzimidazol-5-yl]-acrylamide] were, in that order, 2660 nM and 883 nM.
With `CCCn1c(CCc2ccccc2)nc2cc(/C=C/C(=O)NO)ccc21` [Compound 36, N-Hydroxy-3-(2-phenethyl-1-propyl-1H-benzimidazol-5-yl}-acrylamide], in experiment [1], the IC50 turned out to be 227 nM.
As to `CC(C)Cc1nc2cc(/C=C/C(=O)NO)ccc2n1CCc1ccccn1` [Compound 22], in experiment [2], the IC50 stood at 234 nM.
Consider `CC(C)Cc1nc2cc(/C=C/C(=O)NO)ccc2n1Cc1ccccc1` [Compound 34, N-Hydroxy-3-(1-Benzyl-2-isobutyl-1H-benzimidazol-5-yl}-acrylamide], for which the IC50 in experiment [1] came out at 1460 nM; in experiment [2], 846 nM.
The corresponding values for `COc1ccc(-c2nc3cc(/C=C/C(=O)NO)ccc3n2CCO)cc1` [Compound 5, N-Hydroxy-3-[1-(2-hydroxy-ethyl)-2-(4-methoxy-phenyl)-1H-benzimidazole-5-yl]-acrylamide] are 4320 nM and 401 nM.
For the molecule `Cn1cnc2cc(/C=C/C(=O)NO)ccc21` [Compound 49, N-Hydroxy-3-(1-methyl-1H-benzimidazol-5-yl)-acrylamide], in experiment [1], the IC50 came to 1400 nM.
Take `COc1cc(-c2nc3cc(/C=C/C(=O)NO)ccc3n2CCCO)ccc1OCc1ccccc1` [Compound 4, N-Hydroxy-3-[2-(4-benzyloxy-3-methoxy-phenyl)-1-(3-hydroxy-propyl)-1H-benzimidazole-5-yl]-acrylamide]: the IC50 in experiment [1] worked out at 1340 nM; in experiment [2], 790 nM.
For `O=C(/C=C/c1ccc2[nH]cnc2c1)NO` [Compound 51, N-Hydroxy-3-(1H-benzimidazol-5-yl)-acrylamide], the IC50 in experiment [1] was 896 nM.
The same measure, in the same setting: in the case of `CCCn1cnc2cc(/C=C/C(=O)NO)ccc21` [Compound 37, N-Hydroxy-3-(1-propyl-1H-benzimidazol-5-yl}-acrylamide] it was 897 nM; in that of `CN(C)CC(C)(C)Cn1c(CCc2cccnc2)nc2cc(/C=C/C(=O)NO)ccc21` [Compound 86, N-Hydroxy-3-[1-(3-Dimethylamino-2,2-dimethyl-propyl)-2-(2-pyridin-3-yl-ethyl)-1H-benzimidazol-5-yl]-acrylamide], 400 nM.
On to `O=C(NO)c1ccc2c(c1)nc(CCc1ccccc1)n2CCCO` [Compound 40, 1-(3-Hydroxy-propyl)-2-phenethyl-1H-benzimidazol-5-carboxylic acid hydroxyamide], for which the IC50 in experiment [2] was determined as 441 nM.
Consider `CCn1cnc2cc(/C=C/C(=O)NO)ccc21` [Compound 39, N-Hydroxy-3-(1-Ethyl-1H-benzimidazol-5-yl)-acrylamide], for which the IC50 in experiment [1] came to 1220 nM.
On to `CCn1c(CCCc2c[nH]c3ccccc23)nc2cc(/C=C/C(=O)NO)ccc21` [Compound 93, N-Hydroxy-3-(1-ethyl-2-[3-(1H-indol-3-yl)-propyl]-1H-benzimidazol-5-yl)-acrylamide], for which the half-inhibitory concentration (IC50) in experiment [1] is 65 nM.
Still for that read-out and setting: the result for `Cn1c(CNCc2ccccc2)nc2cc(/C=C/C(=O)NO)ccc21` [Compound 60, N-Hydroxy-3-[2-(benzylamino-methyl)-1-methyl-1H-benzimidazol-5-yl]-acrylamide] reads 116 nM; that for `CCn1c(CCNCc2ccccc2)nc2cc(/C=C/C(=O)NO)ccc21` [Compound 74, N-Hydroxy-3-[2-(2-benzylamino-ethyl)-1-ethyl-1H-benzimidazol-5-yl]-acrylamide], 371 nM.
Still for that read-out and setting: the result for `CCn1c(Cc2ccccc2)nc2cc(/C=C/C(=O)NO)ccc21` [Compound 92, N-Hydroxy-3-(2-benzyl-1-ethyl-1H-benzimidazol-5-yl)-acrylamide] reads 168 nM; that for `CCn1c(CNCc2ccccc2)nc2cc(/C=C/C(=O)NO)ccc21` [Compound 64, N-Hydroxy-3-[2-(benzylamino-methyl)-ethyl-1H-benzimidazol-5-yl]-acrylamide], 230 nM.
As to `O=C(/C=C/c1ccc2c(c1)nc(CCc1ccccc1)n2CCc1ccccc1)NO` [Compound 26, N-Hydroxy-3-(1,2-Diphenethyl-1H-benzimidazol-5-yl]-acrylamide], the IC50 in experiment [1] came to 876 nM.
Regarding `CN(C)CCCn1c(CCc2ccccc2)nc2cc(/C=C/C(=O)NO)ccc21` [Compound 63, N-Hydroxy-3-[1-(3-dimethylamino-propyl)-2-phenethyl-1H-benzimidazol-5-yl]-acrylamide], in experiment [1], the IC50 came to 162 nM.
Consider `CC(Cc1nc2cc(/C=C/C(=O)NO)ccc2n1CCc1cccnc1)c1ccccc1` (stereo not shown) [Compound 41], for which the IC50 in experiment [2] came out at 159 nM.
Turning to `CC(C)Cc1nc2cc(CCC(=O)NO)ccc2n1CCCO` [Compound 29, N-Hydroxy-3-[1-(3-Hydroxy-propyl)-2-isobutyl-1H-benzimidazol-5-yl]-propionamide], the 50% inhibitory concentration (IC50) in experiment [2] amounted to 34000 nM.
Still for that read-out and setting: the result for `COCCCn1c(CCc2ccccc2)nc2cc(/C=C/C(=O)NO)ccc21` [Compound 15] reads 313 nM; that for `O=C(/C=C/c1ccc2c(c1)nc(CCc1ccccc1)n2CCc1ccccn1)NO` [Compound 18], 290 nM.
`O=C(/C=C/c1ccc2c(c1)nc(COCc1ccccc1)n2CCc1cccnc1)NO` [Compound 28]: the IC50 in experiment [2] is 300 nM.
Regarding `CCn1c(CCCOc2ccccc2)nc2cc(/C=C/C(=O)NO)ccc21` [Compound 96, N-Hydroxy-3-[1-ethyl-2-(3-phenoxy-propyl)-1H-benzimidazol-5-yl]-acrylamide], in experiment [1], the IC50 was found to be 125 nM.

Usually IC50 stands for the concentration that gives 50% inhibition.

Values taken from patent US8551988B2, “Benzimidazole derivatives: preparation and pharmaceutical applications” (Mei Pharma, Inc., priority 2003, dated 2013).
